# In PMC9414986, “Phytochemical Characterization of Cannabis sativa L. Chemotype V Reveals Three New Dihydrophenanthrenoids That Favorably Reprogram Lipid Mediator Biosynthesis in Macrophages” (Plants, 2022):
# Legend:
# cell apoptosis = test system: cell apoptosis; design: method as in PMID 18840408, PMID 18262737; conditions: cited from earlier work
# human recombinant 5-LOX = molecular target: T1, human recombinant 5-LOX (Homo sapiens, UniProt P09917); assay: cell-free 5-lipoxygenase activity assay; type: biochemical; conditions: arachidonic acid 20 µM, 10 min at 37 °C, read-out: IC50 for inhibition of human recombinant 5-LOX
# T1 construct: purchased Cayman Chemical
# T1 sequence (P09917 1-674): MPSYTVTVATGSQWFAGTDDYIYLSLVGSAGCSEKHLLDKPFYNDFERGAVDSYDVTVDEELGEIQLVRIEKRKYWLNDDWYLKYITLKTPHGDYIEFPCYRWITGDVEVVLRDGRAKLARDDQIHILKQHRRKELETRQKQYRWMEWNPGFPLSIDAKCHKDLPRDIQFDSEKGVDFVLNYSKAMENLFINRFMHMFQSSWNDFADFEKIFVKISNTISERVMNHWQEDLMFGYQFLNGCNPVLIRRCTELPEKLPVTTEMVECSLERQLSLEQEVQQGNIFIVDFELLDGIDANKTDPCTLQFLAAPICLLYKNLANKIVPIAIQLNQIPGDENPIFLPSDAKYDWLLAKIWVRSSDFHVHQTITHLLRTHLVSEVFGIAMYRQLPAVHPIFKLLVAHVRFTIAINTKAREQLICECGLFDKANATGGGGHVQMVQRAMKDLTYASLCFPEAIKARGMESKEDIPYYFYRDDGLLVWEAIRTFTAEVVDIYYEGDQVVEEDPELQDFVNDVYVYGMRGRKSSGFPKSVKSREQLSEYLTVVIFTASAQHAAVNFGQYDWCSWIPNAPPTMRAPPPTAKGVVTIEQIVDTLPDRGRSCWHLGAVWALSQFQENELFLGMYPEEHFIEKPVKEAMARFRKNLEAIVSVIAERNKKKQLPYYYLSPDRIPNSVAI
# Method: Human recombinant 5-LOX (Cayman Chemical, 10 U) was pre-treated with vehicle (DMSO, 0.1%) or test compounds for 10 min in 1 mL PBS pH 7.4, 1 mM EDTA and 1 mM ATP on ice before CaCl2 (2 mM) and arachidonic acid (20 µM) were added. After 10 min at 37 °C, the reaction was stopped by the addition of ice-cold MeOH (1 mL) and PGB1 (2 ng) as internal standard. Clean-Up C-18 Endcapped SPE cartridges (100 mg, 10 mL, UCT, Bristol, PA, USA) were conditioned with MeOH (1 mL, twice) and equilibrated with water (1 mL). After acidification (530 µL PBS plus 60 mM HCl) and centrifugation (750× g, 10 min, 4 °C), supernatants containing lipid mediators were loaded onto the columns, which were first washed with water (1 mL) and then MeOH/water (25:75, 1 mL). After elution of lipid mediators with MeOH (300 µL), water (120 µL) was added and samples were centrifuged (21,100× g, 10 min, 4 °C) and subjected to LC-PDA analysis. 5-LOX products, including all trans-isomers of LTB4 and 5-HETE, were separated at 40 °C and a flow rate of 0.45 mL/min on a Kinetex C-18 LC column (100Å, 1.3 μm, 2.1 × 50 mm, Phenomenex, Torrance, CA) using a Nexera X2 UHPLC system (Shimadzu, Kyoto, Japan). The step gradient of mobile phase A (water/MeOH, 50/50, 0.05% trifluoroacetic acid) and mobile phase B (MeOH, 0.05% trifluoroacetic acid) was kept at 14% B for 2 min, followed by 46% B for 2 min and 90% B for another 2 min. LTB4 isomers and 5-HETE were detected with a photodiode array detector (SPD-M20A, Shimadzu, Kioto, Japan) at 280 nm and 235 nm, respectively. Lipid quantitieswere calculated by internal calibration using PGB1 as reference standard.
# Data are expressed as mean ± s.e.m. and single data from n = 4–8 independent experiments. […] Data were analyzed using Microsoft Excel (Office 365, Version: 2204, Albuquerque, New Mexico), and statistics were performed using GraphPad Prism (GraphPad Software version 9.3.1, Dotmatics, Boston, UK). IC50 values were calculated by non-linear regression (GraphPad Prism 9.3.1).
# COX product formation = COX product formation in activated human M1 macrophages (metabololipidomics); type: cell-based
# Source text: (§1) Leukocyte reduction system chamber (LRSC) filters were provided by the Central Institute for Blood Transfusion and Immunological Department of Tirol Kliniken GmbH (Austria) with the informed consent of the volunteers. Only healthy blood donors between 18 and 65 years of age without medication for chronic diseases, fever, or deficiency symptoms and after physical examinations by trained medical personnel were included in the study. Human peripheral blood mononuclear cells (PBMC) were freshly isolated from LRSC filters. After dilution of the cell concentrates in PBS pH 7.4 containing 12.5 mM citrate and 14 mM glucose (130 mL, 37 °C), immune cells were separated via isopycnic density gradient centrifugation (400× g, 20 min, RT) using Histopaque®-1077 (Sigma-Alrich, St. Louis, MO, USA). PBMC were obtained from the interphase after hypotonic lysis of erythrocytes using water (2–5 mL) and two consecutive washing steps with PBS pH 7.4 (50 mL) (270× g, 5 min, RT). […]
# (§2) Lipid mediator biosynthesis in human M1/M2 macrophages (1.5 mL PBS pH 7.4 plus 1 mM CaCl2) was stimulated with Staphylococcus aureus (LS1)-conditioned medium (1.0%, 3 h) after 15 min preincubation with DMSO (0.1%) or test compounds and stopped by addition of ice-cold MeOH (2.5 mL) containing deuterium-labeled internal standards (200 pg d8-5S-hydroxyeicosatetraenoic acid (HETE), d4-leukotriene (LT)B4, d5-lipoxin (LX)A4, d5-resolvin (Rv)D2, d4-prostaglandin (PG)E2, and 2000 pg d8-arachidonic acid (Cayman Chemical, Ann Arbor, MI, USA)). […] The gradient of mobile phase A (water/MeOH, 90/10, 0.01% acetic acid) and mobile phase B (MeOH, 0.01% acetic acid) was ramped at a flow rate of 0.35 mL/min from 35.6% to 84.4% B within 12.5 min followed by 5 min of isocratic elution at 97.8% B. Lipid mediators and fatty acids were analyzed in the negative ion mode by scheduled multiple reaction monitoring (detection window: 120 s) using a QTRAP 6500^+ Mass Spectrometer (Sciex), which was equipped with an electrospray ionization source. […]
# 5-LOX product formation = 5-LOX product formation in activated human M1 macrophages (metabololipidomics); conditions: Macrophage, cell-based, Staphylococcus aureus-conditioned medium 1.0%, 3 h, 15 min preincubation, read-out: IC50 for inhibition of 5-LOX product formation
# Source text: as §1, §2
# 12/15-LOX product levels = assay: 12- and 15-LOX product levels in activated macrophages; type: cell-based, human
# Source text: (§3) Leukocyte reduction system chamber (LRSC) filters were provided by the Central Institute for Blood Transfusion and Immunological Department of Tirol Kliniken GmbH (Austria) with the informed consent of the volunteers. Only healthy blood donors between 18 and 65 years of age without medication for chronic diseases, fever, or deficiency symptoms and after physical examinations by trained medical personnel were included in the study. Human peripheral blood mononuclear cells (PBMC) were freshly isolated from LRSC filters. […]
# (§4) Lipid mediator biosynthesis in human M1/M2 macrophages (1.5 mL PBS pH 7.4 plus 1 mM CaCl2) was stimulated with Staphylococcus aureus (LS1)-conditioned medium (1.0%, 3 h) after 15 min preincubation with DMSO (0.1%) or test compounds and stopped by addition of ice-cold MeOH (2.5 mL) containing deuterium-labeled internal standards (200 pg d8-5S-hydroxyeicosatetraenoic acid (HETE), d4-leukotriene (LT)B4, d5-lipoxin (LX)A4, d5-resolvin (Rv)D2, d4-prostaglandin (PG)E2, and 2000 pg d8-arachidonic acid (Cayman Chemical, Ann Arbor, MI, USA)). […] Transitions selected for quantitation and the corresponding declustering potential (DP), entrance potential (EP), collision energy (CE) and collision cell exit potential (CXP) are listed in Table 4. […]
# human M2 macrophages = assay: lipid mediator profile (SPMs, precursors, free PUFAs) in activated human M2 macrophages; type: cell-based
# Source text: Leukocyte reduction system chamber (LRSC) filters were provided by the Central Institute for Blood Transfusion and Immunological Department of Tirol Kliniken GmbH (Austria) with the informed consent of the volunteers. Only healthy blood donors between 18 and 65 years of age without medication for chronic diseases, fever, or deficiency symptoms and after physical examinations by trained medical personnel were included in the study. Human peripheral blood mononuclear cells (PBMC) were freshly isolated from LRSC filters. After dilution of the cell concentrates in PBS pH 7.4 containing 12.5 mM citrate and 14 mM glucose (130 mL, 37 °C), immune cells were separated via isopycnic density gradient centrifugation (400× g, 20 min, RT) using Histopaque®-1077 (Sigma-Alrich, St. Louis, MO, USA). PBMC were obtained from the interphase after hypotonic lysis of erythrocytes using water (2–5 mL) and two consecutive washing steps with PBS pH 7.4 (50 mL) (270× g, 5 min, RT).
# To differentiate monocytes, which are the predominant cell type in PBMC, towards M0 macrophages, they were first stimulated with 20 ng/mL GM-CSF or M-CSF (HiSS Diagnostics GmbH, Freiburg, Germany) for 6 days in macrophage medium (RPMI 1640 supplemented with 10% FCS, 2 mmol/L L-glutamine, 100 U/mL penicillin and 100 μg/mL streptomycin). These monocyte-derived macrophages were polarized for another 48 h in macrophage medium with 100 ng/mL lipopolysaccharide and 20 ng/mL interferon-γ (Peprotech, Hamburg, Germany) to obtain M1 or with 20 ng/mL interleukin-4 (Peprotech, Hamburg, Germany) to obtain M2 phenotypes.
# Lipid mediator biosynthesis in human M1/M2 macrophages (1.5 mL PBS pH 7.4 plus 1 mM CaCl2) was stimulated with Staphylococcus aureus (LS1)-conditioned medium (1.0%, 3 h) after 15 min preincubation with DMSO (0.1%) or test compounds and stopped by addition of ice-cold MeOH (2.5 mL) containing deuterium-labeled internal standards (200 pg d8-5S-hydroxyeicosatetraenoic acid (HETE), d4-leukotriene (LT)B4, d5-lipoxin (LX)A4, d5-resolvin (Rv)D2, d4-prostaglandin (PG)E2, and 2000 pg d8-arachidonic acid (Cayman Chemical, Ann Arbor, MI, USA)). Samples were incubated at −20 °C for at least 1 h to precipitate proteins and then centrifuged (750× g, 10 min, 4 °C). The supernatant was mixed with acidified water (7 mL, pH 3.5) and loaded onto solid phase cartridges (Sep-Pak® Vac 6cc 500 mg/6 mL C-18 (Waters, Milford, MA, USA)), which were conditioned with MeOH (6 mL) and equilibrated with water (2 mL). Columns were washed with water (6 mL) and hexane (6 mL, 4 °C) before lipid mediators were eluted with methyl formiate (6 mL). The organic phase was evaporated to dryness using a TurboVap LV (Biotage, Uppsala, Sweden) and the remaining lipids were dissolved in MeOH/water (1:1), centrifuged twice (21,100× g, 4 °C, 5 min), and subjected to UPLC-MS/MS analysis. Chromatographic separation of lipid mediators was carried out at 55°C on an Acquity UPLC BEH C-18 column (130Å, 1.7 μm, 2.1 × 100 mm, Waters) using an ExionLC AD UHPLC system (Sciex, Framingham, MA, USA). The gradient of mobile phase A (water/MeOH, 90/10, 0.01% acetic acid) and mobile phase B (MeOH, 0.01% acetic acid) was ramped at a flow rate of 0.35 mL/min from 35.6% to 84.4% B within 12.5 min followed by 5 min of isocratic elution at 97.8% B. Lipid mediators and fatty acids were analyzed in the negative ion mode by scheduled multiple reaction monitoring (detection window: 120 s) using a QTRAP 6500^+ Mass Spectrometer (Sciex), which was equipped with an electrospray ionization source. The curtain gas was set to 40 psi, the collision gas to medium, the ion spray voltage to −4000 V, the heated capillary temperature to 500 °C, and the sheath and auxiliary gas pressure to 40 psi. Transitions selected for quantitation and the corresponding declustering potential (DP), entrance potential (EP), collision energy (CE) and collision cell exit potential (CXP) are listed in Table 4. […]
# [1] = test system: soluble epoxide hydrolase (sEH); assay: cellular sEH activity (DHETs/EETs ratio) in human M2 macrophages; type: cell-based
# Source text: as §3, §4
# [2] = test system: 5-lipoxygenase (5-LOX) pathway; design: method as in PMID 28165233; conditions: cited from earlier work
# [3] = test system: microsomal prostaglandin E2 synthase (mPGES)-1; design: method as in doi:10.1016/j.phanu.2014.05.001; conditions: cited from earlier work
smiles,measurement,setting,value
"COC1=CC(=O)c2ccc3cc(OC)cc(O)c3c2C1=O [Compound 4, denbinobin]",cell apoptosis induction,cell apoptosis,cell apoptosis-inducing properties
"COC1=CC(=O)C2=C(C1=O)c1c(cc(OC)cc1OC)CC2 [Compound 5, 9,10-dihydro-3,5,7-trimethoxy-1,4-phenanthrenequinone]",IC50,human recombinant 5-LOX,20.1 µM
same,IC50,"COX product formation; Macrophage, cell-based, Staphylococcus aureus-conditioned medium, read-out: IC50 for inhibition of COX product (prostanoid) formation",2 µM
same,IC50,5-LOX product formation,1 µM
same,12/15-LOX product levels,12/15-LOX product levels,slightly but significantly lowered
same,D-series Rv (RvDs) levels,human M2 macrophages,but not RvDs levels
same,maresin 2 (MaR2) levels,human M2 macrophages,elevated
same,protectins (PDs) levels,human M2 macrophages,elevated
same,release of polyunsaturated fatty acids (PUFAs),human M2 macrophages,decreased
same,ratio of DHETs/EETs (indicator of sEH activity),[1],significantly elevated
"COc1cc(O)cc(CCc2ccc(OC)c(O)c2CC=C(C)C)c1 [Compound 6, canniprene]",production of inflammatory eicosanoids via the 5-LOX pathway,[2],potently inhibits
"COc1cc(O)c2c(c1)CCc1cc(OC)c(OC)c(O)c1-2 [Compound 9, 9,10-dihydro-2,3,7-trimethoxy-4,5-phenanthrenediol]",IC50,human recombinant 5-LOX,6.9 µM
same,effect on COX product formation,COX product formation,substantially elevated
same,IC50,5-LOX product formation,3.8 µM
same,D-series Rv (RvDs) levels,human M2 macrophages,raised
same,"formation of SPM precursors, including 17-HDHA, 15-HEPE and 15-HETE",human M2 macrophages,enhanced formation
same,maresin 2 (MaR2) levels,human M2 macrophages,raised
same,production of specialized pro-resolving mediators (SPMs),human M2 macrophages,stimulated
same,protectins (PDs) levels,human M2 macrophages,raised
"COc1cc2c(c(OC)c1O)-c1c(ccc(OC)c1O)CC2 [Compound 10, 9,10-dihydro-2,4,6-trimethoxy-3,5-phenanthrenediol]",IC50,human recombinant 5-LOX,4.6 µM
same,effect on COX product formation,COX product formation,substantially elevated
same,IC50,5-LOX product formation,8.5 µM
same,maresin 2 (MaR2) levels,human M2 macrophages,selectively increased
same,production of specialized pro-resolving mediators (SPMs),human M2 macrophages,stimulated
same,ratio of DHETs/EETs (indicator of sEH activity),[1],only increased by trend
"COc1cc(-c2cc(=O)c3c(O)c(C/C=C(\C)CCC=C(C)C)c(O)cc3o2)ccc1O [Compound 7a, cannflavin A]",inhibition of mPGES-1,[3],potent inhibitors
"COc1cc(-c2cc(=O)c3c(O)c(CC=C(C)C)c(O)cc3o2)ccc1O [Compound 8, cannflavin B]",inhibition of mPGES-1,[3],potent inhibitors
